Source: BindingDB's records for doi:10.1016/j.ejmech.2017.08.046 (University of Torino, 2017)

Target: Prostaglandin G/H synthase 2 (Homo sapiens) (UniProt P35354)
Assay: Inhibition of human COX2 assessed as reduction in PGF2alpha production by ELISA

Chain of Prostaglandin G/H synthase 2 (Homo sapiens) (P35354 whole entry, looked up): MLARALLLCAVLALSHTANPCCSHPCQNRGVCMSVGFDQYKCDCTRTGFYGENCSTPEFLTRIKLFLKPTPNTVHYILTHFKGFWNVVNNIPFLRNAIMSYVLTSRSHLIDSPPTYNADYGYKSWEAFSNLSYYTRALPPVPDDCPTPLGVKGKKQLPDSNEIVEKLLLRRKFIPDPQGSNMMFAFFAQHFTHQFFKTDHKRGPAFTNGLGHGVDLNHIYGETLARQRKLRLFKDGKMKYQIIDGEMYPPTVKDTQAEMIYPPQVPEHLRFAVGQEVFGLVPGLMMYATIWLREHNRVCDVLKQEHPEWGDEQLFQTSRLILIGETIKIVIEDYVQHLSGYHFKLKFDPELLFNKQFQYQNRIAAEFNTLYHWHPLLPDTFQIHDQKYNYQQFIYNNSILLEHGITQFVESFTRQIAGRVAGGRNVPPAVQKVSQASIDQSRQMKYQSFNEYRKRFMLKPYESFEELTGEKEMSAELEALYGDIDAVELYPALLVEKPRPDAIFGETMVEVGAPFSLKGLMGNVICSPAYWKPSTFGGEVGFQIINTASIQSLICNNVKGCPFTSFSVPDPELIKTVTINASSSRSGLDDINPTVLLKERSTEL

| IC50 [µM] | Structure (SMILES) |
| --- | --- |
| > 100 | O=C(Nc1cccc(C(F)(F)F)c1)c1c(O)nnn1Cc1ccccc1 |
| > 100 | COc1ccc(Cn2nnc(O)c2C(=O)Nc2cccc(C(F)(F)F)c2)cc1 |
| > 100 | O=C(Nc1cccc(C(F)(F)F)c1)c1c(O)nnn1CC1CC1 |
